This experiment has as its target Stromelysin-1 (Homo sapiens, UniProt P08254). Kind of experiment: Inhibitory activity against Matrix metalloprotease-3.

Molecules are shown by their SMILES. pIC50: −log10 of the molar value. Where only a bound is given, the exact number is not on record here.

Chain of Stromelysin-1 (P08254 whole entry): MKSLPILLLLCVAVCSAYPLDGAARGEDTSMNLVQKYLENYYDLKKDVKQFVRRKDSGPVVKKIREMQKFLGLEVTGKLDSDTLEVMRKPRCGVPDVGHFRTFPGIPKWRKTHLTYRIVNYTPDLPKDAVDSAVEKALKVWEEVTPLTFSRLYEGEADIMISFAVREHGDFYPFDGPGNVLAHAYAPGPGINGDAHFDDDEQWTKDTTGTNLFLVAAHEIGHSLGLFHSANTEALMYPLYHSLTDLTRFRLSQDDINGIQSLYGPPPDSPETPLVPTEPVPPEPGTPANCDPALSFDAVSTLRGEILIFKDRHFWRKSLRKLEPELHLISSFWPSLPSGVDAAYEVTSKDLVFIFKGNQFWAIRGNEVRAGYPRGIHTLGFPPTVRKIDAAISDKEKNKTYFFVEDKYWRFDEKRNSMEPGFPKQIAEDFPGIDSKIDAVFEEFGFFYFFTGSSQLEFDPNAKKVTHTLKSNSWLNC

The term pIC50 denotes the IC50 on a negative log10 scale, so that one unit is a factor of ten. The molecule `COc1ccc(S(=O)(=O)NCC[C@H](N[C@@H](CCc2ccccc2)C(=O)N[C@@H](CC(C)C)C(=O)NOCc2ccccc2)C(=O)O)cc1` had a pIC50 of 6.26.
As for `Cc1ccc(S(=O)(=O)NCC[C@H](N[C@@H](CCc2ccccc2)C(=O)N[C@@H](CC(C)C)C(=O)Nc2ccccc2)C(=O)O)cc1`, the figure is 7.30; as for `COc1ccc(S(=O)(=O)NCC[C@H](N[C@@H](CCc2ccccc2)C(=O)N[C@@H](CC(C)C)C(=O)Nc2ccccc2)C(=O)O)cc1`, 7.30; as for `CCOC(=O)N1CCN(C(=O)[C@H](CCc2ccccc2)N[C@@H](CCNS(=O)(=O)c2ccc(OC)cc2)C(=O)O)CC1`, less than 4.70.
`CNC(=O)[C@H](Cc1ccccc1)NC(=O)[C@H](CCc1ccccc1)N[C@@H](CCN1C(=O)NC2(CCCC2)C1=O)C(=O)O` had a pIC50 of 5.72.
In turn, `CNC(=O)[C@H](Cc1ccccc1)NC(=O)[C@H](CCc1ccccc1)N[C@@H](CCNS(=O)(=O)c1ccc2ccccc2c1)C(=O)O` showed a pIC50 of 6.29. This pIC50 lies 0.57 log units higher than the previous one.
As for `COc1ccc(S(=O)(=O)NCC[C@H](N[C@@H](CCc2ccccc2)C(=O)N2CCC(O)CC2)C(=O)O)cc1`, the figure is less than 4.70; as for `CNC(=O)[C@H](Cc1ccccc1)NC(=O)[C@H](CCc1ccccc1)N[C@@H](CCNS(=O)(=O)c1ccc(C)cc1)C(=O)O`, 6.92.
In turn, `CNC(=O)c1ccc(CNC(=O)[C@H](CCc2ccccc2)N[C@@H](CCNS(=O)(=O)c2ccc(OC)cc2)C(=O)O)cc1` showed a pIC50 of 4.74.
To `COc1ccc(S(=O)(=O)NCC[C@H](N[C@@H](CCc2ccccc2)C(=O)N2CCN(S(C)(=O)=O)CC2)C(=O)O)cc1` belongs less than 4.70; to `COc1ccc(S(=O)(=O)NCC[C@H](N[C@@H](CCc2ccccc2)C(=O)NCc2ccc(C(=O)O)cc2)C(=O)O)cc1`, 4.85.
To `CNC(=O)[C@H](Cc1ccccc1)NC(=O)[C@H](CCc1ccccc1)N[C@@H](CCNC(=O)c1cc2ccccc2[nH]1)C(=O)O` belongs 5.96.
For the molecule `CCOC(=O)N1CCC(NC(=O)[C@H](CCc2ccccc2)N[C@@H](CCNS(=O)(=O)c2ccc(OC)cc2)C(=O)O)CC1`, the pIC50 is less than 4.70.
`COc1ccc(S(=O)(=O)NCC[C@H](N[C@@H](CCc2ccccc2)C(=O)N2CCOCC2)C(=O)O)cc1` showed a pIC50 of less than 4.70.
